The record followed here is US20090143279A1 (priority 2007, published 2009).

One assay has as its system cytochrome c. The assay is classed as cell-based, mouse. Particulars: for cyt c (composite Z-score): normalized score vs mock-treated (DMSO) wells.
The subject of the next assay is OXPHOS gene expression. The assay is classed as cell-based, mouse. Particulars: for GE-HTS (composite Z-score): normalized score vs mock-treated (DMSO) wells.
Another assay relates to reactive oxygen species. The assay is classed as cell-based, mouse. Particulars: for ROS (composite Z-score): normalized score vs mock-treated (DMSO) wells.
The test system of assay [1] is mitochondrial membrane potential. The assay is classed as cell-based, mouse. Particulars: for ΔΨm (composite Z-score): normalized score vs mock-treated (DMSO) wells.
A further assay relates to C2C12 myotubes. Particulars: for Viability (composite Z-score): normalized score vs mock-treated (DMSO) wells.
For assay [2], the system named is cellular dehydrogenase activity. Particulars: for MTT (composite Z-score): normalized score vs mock-treated (DMSO) wells.
For another assay, the system named is nuOXPHOS transcripts. In kind it is cell-based, mouse. Particulars: for nucOX (composite Z-score): normalized score vs mock-treated (DMSO) wells.
The subject of a further assay is mtOXPHOS transcripts. The assay is classed as cell-based, mouse. Particulars: for mitoOX (composite Z-score): normalized score vs mock-treated (DMSO) wells.
Setting [3] is: composite Z-score vs DMSO, Conc 20 μM.
Setting [4] is: composite Z-score vs mock-treated (DMSO) wells, Conc 20 μM.
The mark [5] stands for this setting: Table 4, C2C12 myotubes, 48 h, composite Z-score.
Where [6] appears, read: Table 4, C2C12 myotubes, 48 h, JC-1, composite Z-score.
[7] abbreviates: composite Z-score vs DMSO wells, Conc 20 μM.
Setting [8] is: normalized composite Z-score vs mock-treated (DMSO) wells, Conc 20 μM.
[9] abbreviates: 20 μM, composite Z-score vs DMSO.

Where two headings read alike, the source gives them in different places.

In the case of `CC1(C)S[C@@H]2[C@H](N3C(=O)[C@@H](c4ccccc4)NC3(C)C)C(=O)N2[C@H]1C(=O)O` [hetacillin], in the assay on cytochrome c (setting [3]), the cyt c worked out at 0.731. This molecule also yielded a GE-HTS with OXPHOS gene expression (setting [3]) of −0.200. The same molecule returned an ROS with reactive oxygen species (setting [3]) of 1.132. In assay [1] (setting [3]), this molecule came in with a ΔΨm of −0.787. Besides, the Viability in the assay on C2C12 myotubes (setting [3]) is given as −0.642. The same molecule gave an MTT in assay [2] (setting [3]) of −0.663. This molecule also returned a nucOX with nuOXPHOS transcripts (setting [3]) of −0.094. The same molecule returned a mitoOX in the assay on mtOXPHOS transcripts (setting [3]) of −0.302.
In the assay with cytochrome c (setting [4]), `COc1cc(O)c2c(=O)cc(C)oc2c1CC=C(C)C` [heteropeucenin, methyl ether] registered a cyt c of 0.416. The same molecule had a GE-HTS in the assay on OXPHOS gene expression (setting [4]) of 0.299. In the assay with reactive oxygen species (setting [4]), this molecule returned an ROS of 0.256. This molecule also yielded a ΔΨm in assay [1] (setting [4]) of 0.886. For the same molecule, the Viability in the assay on C2C12 myotubes (setting [4]) is listed as −0.034. This molecule also showed an MTT in assay [2] (setting [4]) of −1.476. Also, the nucOX in the assay on nuOXPHOS transcripts (setting [4]) is listed as 0.328. The same molecule displayed a mitoOX in the assay with mtOXPHOS transcripts (setting [4]) of 0.217.
Take `CCC(C)C(OC(C)=O)C(=O)O[C@H]1[C@H](O)[C@@H]2[C@@]3(C)C=CC(=O)C(C)(C)[C@@H]3C[C@@H](OC(=O)C(O)C(C)C)[C@@]2(C)[C@@]23O[C@@H]2C[C@@H](c2ccoc2)[C@]13C` (stereo partly drawn) [heudelottin C, reference compound]: the “cyt c (composite Z-score)” value in the assay with cytochrome c (Conc 20 μM) came to 0.156. Besides, in the assay with OXPHOS gene expression (Conc 20 μM), the “GE-HTS (composite Z-score)” value is reported as −0.524. Besides, the “ROS (composite Z-score)” value in the assay with reactive oxygen species (Conc 20 μM) is 0.576. Moreover, the ROS in the assay with reactive oxygen species (setting [5]) is on record as 0.576. The “ΔΨm (composite Z-score)” value in assay [1] (Conc 20 μM) came out at 0.373. For the same molecule, the ΔΨm in assay [1] (setting [6]) turned out to be 0.373. Besides, in the assay on C2C12 myotubes (Conc 20 μM), the “Viability (composite Z-score)” value is −0.829. In addition, the Viability with C2C12 myotubes (setting [5]) is listed as −0.829. Besides, the “MTT (composite Z-score)” value in assay [2] (Conc 20 μM) is recorded as −0.393. For the same molecule, the MTT in assay [2] (setting [5]) is −0.393. Also, the “nucOX (composite Z-score)” value in the assay with nuOXPHOS transcripts (Conc 20 μM) was −0.245. In addition, the “mitoOX (composite Z-score)” value in the assay on mtOXPHOS transcripts (Conc 20 μM) is −1.006.
Take `Oc1c(Cl)cc(Cl)c(Cl)c1Cc1c(O)c(Cl)cc(Cl)c1Cl` [hexachlorophene]: the cyt c with cytochrome c (setting [7]) is reported as −2.828. In addition, in the assay on OXPHOS gene expression (setting [7]), the GE-HTS is reported as −2.471. In addition, in the assay with reactive oxygen species (setting [7]), the ROS is −3.378. The molecule also came in with a ΔΨm in assay [1] (setting [7]) of −2.559. The Viability with C2C12 myotubes (setting [7]) is −3.480. The molecule also gave an MTT in assay [2] (setting [7]) of −1.203. The same molecule returned a nucOX with nuOXPHOS transcripts (setting [7]) of −1.371. The molecule also gave a mitoOX with mtOXPHOS transcripts (setting [7]) of −4.169.
Take `C[N+](C)(C)CCCCCC[N+](C)(C)C` [hexamethonium bromide]: the cyt c with cytochrome c is given as −0.284; in the assay on cytochrome c (setting [7]), 0.087. This molecule also had a GE-HTS with OXPHOS gene expression (setting [7]) of −0.735. This molecule registered an ROS with reactive oxygen species (setting [7]) of 0.176. Also, the ΔΨm in assay [1] (setting [7]) was −0.602. The molecule also returned a Viability in the assay with C2C12 myotubes (setting [7]) of −0.378. The MTT in assay [2] (setting [7]) is recorded as −1.179. Further, the nucOX in the assay on nuOXPHOS transcripts (setting [7]) is recorded as −0.806. The molecule also returned a mitoOX in the assay with mtOXPHOS transcripts (setting [7]) of −0.442.
For the molecule `O=c1cc(-c2cc(O)c(O)c(O)c2)oc2cc(O)cc(O)c12` [hieracin, reference compound], the “cyt c (composite Z-score)” value in the assay with cytochrome c (Conc 20 μM) turned out to be 0.057. In the assay on OXPHOS gene expression (Conc 20 μM), the “GE-HTS (composite Z-score)” value was −0.648. Also, in the assay with reactive oxygen species (Conc 20 μM), the “ROS (composite Z-score)” value was −0.329. In addition, in the assay with reactive oxygen species (setting [5]), the ROS is recorded as −0.329. Further, in assay [1] (Conc 20 μM), the “ΔΨm (composite Z-score)” value is given as −1.902. The ΔΨm in assay [1] (setting [6]) is given as −1.902. Also, the “Viability (composite Z-score)” value in the assay on C2C12 myotubes (Conc 20 μM) is on record as 1.425. The molecule further registered a Viability in the assay with C2C12 myotubes (setting [5]) of 1.425. In addition, the “MTT (composite Z-score)” value in assay [2] (Conc 20 μM) is given as −0.557. The molecule further had an MTT in assay [2] (setting [5]) of −0.557. For the same molecule, the “nucOX (composite Z-score)” value with nuOXPHOS transcripts (Conc 20 μM) is −0.421. Further, in the assay with mtOXPHOS transcripts (Conc 20 μM), the “mitoOX (composite Z-score)” value is given as −1.009.
For `COc1ccc2c(c1)O[C@H]1c3ccc(OC)cc3OC[C@@H]21` [homopterocarpin], the cyt c in the assay with cytochrome c (setting [8]) is on record as 0.575. In the assay with OXPHOS gene expression (setting [8]), this molecule returned a GE-HTS of −0.918. The ROS with reactive oxygen species (setting [8]) is −0.616. In addition, the ΔΨm in assay [1] (setting [8]) was −0.306. The molecule also showed a Viability in the assay on C2C12 myotubes (setting [8]) of 0.549. This molecule showed an MTT in assay [2] (setting [8]) of −0.578. In the assay on nuOXPHOS transcripts (setting [8]), this molecule returned a nucOX of −0.713. Besides, in the assay with mtOXPHOS transcripts (setting [8]), the mitoOX was −1.126.
As to `C/C1=C\CC/C(C)=C/CC(C)(C)/C=C/C1` [humulene], the cyt c with cytochrome c (setting [8]) is −0.100. In the assay with OXPHOS gene expression (setting [8]), this molecule gave a GE-HTS of −0.096. In the assay on reactive oxygen species (setting [8]), this molecule had an ROS of 0.679. The ΔΨm in assay [1] (setting [8]) was −0.232. The molecule also came in with a Viability in the assay on C2C12 myotubes (setting [8]) of −0.070. The same molecule gave an MTT in assay [2] (setting [8]) of −1.208. In the assay with nuOXPHOS transcripts (setting [8]), this molecule had a nucOX of −0.188. Also, the mitoOX in the assay with mtOXPHOS transcripts (setting [8]) came to 0.060.
Regarding `CCCC(=O)O[C@]1(C(=O)CO)CC[C@H]2[C@@H]3CCC4=CC(=O)CC[C@]4(C)[C@H]3[C@@H](O)C[C@@]21C` [hydrocortisone butyrate], in the assay on cytochrome c (setting [9]), the cyt c is −0.064. This molecule also registered a GE-HTS in the assay on OXPHOS gene expression (setting [9]) of 0.666. This molecule registered an ROS in the assay on reactive oxygen species (setting [9]) of 1.234. For the same molecule, in assay [1] (setting [9]), the ΔΨm is listed as −0.808. Moreover, the Viability in the assay on C2C12 myotubes (setting [9]) is recorded as −1.654. This molecule registered an MTT in assay [2] (setting [9]) of −0.932. For the same molecule, in the assay with nuOXPHOS transcripts (setting [9]), the nucOX is recorded as 0.514. The molecule further registered a mitoOX in the assay on mtOXPHOS transcripts (setting [9]) of 0.916.
